This is an account of results in PubChem BioAssay AID248 (DTP/NCI, 2004).

Where “and” joins values, the source holds several entries; their conditions need not be identical. Equal values may be shown once. Inconclusive results and toxic doses are left out.

This experiment relates to L1210 leukemia ip in BDF1 mice, survival T/C. The experiment is described as follows: NCI In Vivo Anticancer Drug Screen. Data for tumor model L1210 Leukemia (intraperitoneal) in B6D2F1 (BDF1) mice. The conditions noted are these: endpoint: mean survival time, higher = longer survival. Summed up: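 Mice bearing the transplanted tumor received compound or vehicle. Survival of the treated group was divided by that of the vehicle-treated control group to give the ratio.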

The mark [1] stands for this setting: dose: 100.0 mg/kg/injection, schedule: Q01DX009 (ip), vehicle: saline with Tween-80.
Setting [2] is: dose: 200.0 mg/kg/injection, schedule: Q01DX009 (ip), vehicle: saline with Tween-80.
The mark [3] stands for this setting: dose: 50.0 mg/kg/injection, schedule: Q01DX009 (ip), vehicle: saline with Tween-80.
Setting [4] is: dose: 100.0 mg/kg/injection, schedule: Q01DX001 (ip), vehicle: saline.
Setting [5] is: dose: 200.0 mg/kg/injection, schedule: Q01DX001 (ip), vehicle: saline.
The mark [6] stands for this setting: dose: 400.0 mg/kg/injection, schedule: Q01DX001 (ip), vehicle: saline.

Consider `CN(Cc1ccccc1)C(=S)[S-].CN(Cc1ccccc1)C(=S)[S-].[Zn]`, for which the T/C (dose: 2.5 mg/kg/injection, schedule: Q01DX009 (ip), vehicle: acetone) was 100 % of control; the T/C (dose: 5.0 mg/kg/injection, schedule: Q01DX009 (ip), vehicle: acetone) is 87 % of control; the T/C (dose: 5.0 mg/kg/injection, schedule: Q04DX003 (ip), vehicle: saline) is 95 % of control; the T/C (dose: 10.0 mg/kg/injection, schedule: Q01DX001 (ip), vehicle: saline) was 91 % of control; the T/C (dose: 10.0 mg/kg/injection, schedule: Q01DX009 (ip), vehicle: acetone) was 89 % of control; the T/C (dose: 10.0 mg/kg/injection, schedule: Q04DX003 (ip), vehicle: saline) is 92 % of control. Besides, the T/C reads like this: (dose: 20.0 mg/kg/injection, schedule: Q01DX001 (ip), vehicle: saline) 93 % of control; (dose: 20.0 mg/kg/injection, schedule: Q04DX003 (ip), vehicle: saline) 89 % of control.
`COc1ccccc1OC(=S)N(C)C`: the T/C is 102 % of control under setting [1]; 103 % of control (dose: 100.0 mg/kg/injection, schedule: Q04DX003 (ip), vehicle: saline with Tween-80); 100 % of control under setting [2]; 122 % of control (dose: 200.0 mg/kg/injection, schedule: Q04DX003 (ip), vehicle: saline with Tween-80); 93 % of control (dose: 400.0 mg/kg/injection, schedule: Q01DX009 (ip), vehicle: saline with Tween-80); 105 % of control (dose: 400.0 mg/kg/injection, schedule: Q04DX003 (ip), vehicle: saline with Tween-80).
On to `COc1cc2nn(-c3ccccc3N)nc2cc1OC`, for which the T/C reads like this: under setting [3], 98 % of control; under setting [1], 90 % of control; under setting [2], 102 % of control.
As to `CCN(CC)c1ccc(C2NC(=O)c3ccccc3N2)cc1` (configuration not stated), the T/C (dose: 50.0 mg/kg/injection, schedule: Q01DX009 (ip), vehicle: Klucel (hydroxypropylcellulose) (HPC)) was 106 % of control and 108 % of control; the T/C (dose: 100.0 mg/kg/injection, schedule: Q01DX009 (ip), vehicle: Klucel (hydroxypropylcellulose) (HPC)) was 116 % of control; the T/C (dose: 150.0 mg/kg/injection, schedule: Q01DX009 (ip), vehicle: Klucel (hydroxypropylcellulose) (HPC)) was 104 % of control and 117 % of control.
Take `NC(=O)CCl`: the T/C is 92 % of control (dose: 12.5 mg/kg/injection, schedule: Q04DX003 (ip), vehicle: Klucel (hydroxypropylcellulose) (HPC)); 95 % of control (dose: 25.0 mg/kg/injection, schedule: Q04DX003 (ip), vehicle: Klucel (hydroxypropylcellulose) (HPC)); 102 % of control (dose: 25.0 mg/kg/injection, schedule: Q04DX003 (ip), vehicle: saline); 100 % of control (dose: 50.0 mg/kg/injection, schedule: Q04DX003 (ip), vehicle: Klucel (hydroxypropylcellulose) (HPC)); 97 % of control (dose: 50.0 mg/kg/injection, schedule: Q04DX003 (ip), vehicle: saline); 101 % of control (dose: 100.0 mg/kg/injection, schedule: Q04DX003 (ip), vehicle: Klucel (hydroxypropylcellulose) (HPC)). Besides, under “dose: 100.0 mg/kg/injection, schedule: Q04DX003 (ip), vehicle: saline”, the T/C was 100 % of control.
Consider `O=C(O)CSC1=NCCN1`, for which the T/C (dose: 25.0 mg/kg/injection, schedule: Q01DX009 (ip), vehicle: saline) was 91 % of control; the T/C (dose: 50.0 mg/kg/injection, schedule: Q01DX009 (ip), vehicle: saline) is 92 % of control; the T/C (dose: 50.0 mg/kg/injection, schedule: Q04DX002 (ip), vehicle: saline) is 106 % of control and 113 % of control; the T/C (dose: 100.0 mg/kg/injection, schedule: Q01DX009 (ip), vehicle: saline) is 90 % of control; the T/C (dose: 100.0 mg/kg/injection, schedule: Q04DX002 (ip), vehicle: saline) was 100 % of control and 113 % of control; the T/C (dose: 200.0 mg/kg/injection, schedule: Q01DX009 (ip), vehicle: saline) is 93 % of control. The T/C (dose: 200.0 mg/kg/injection, schedule: Q04DX002 (ip), vehicle: saline) was 260 % of control and 91 % of control; the T/C (dose: 400.0 mg/kg/injection, schedule: Q01DX009 (ip), vehicle: saline) is 91 % of control; the T/C (dose: 400.0 mg/kg/injection, schedule: Q04DX002 (ip), vehicle: saline) was 106 % of control.
On to `CC(C)(C)C1CCC(N=C(N)CSS(=O)(=O)O)CC1` (configuration not stated), for which the T/C was 97 % of control (dose: 12.5 mg/kg/injection, schedule: Q04DX002 (ip), vehicle: Klucel (hydroxypropylcellulose) (HPC)) and 95 % of control (dose: 25.0 mg/kg/injection, schedule: Q04DX002 (ip), vehicle: Klucel (hydroxypropylcellulose) (HPC)).
In the case of `CCCCOP(=O)(OCCCC)C(C)c1ccccc1` (configuration not stated), the T/C (dose: 12.5 mg/kg/injection, schedule: Q04DX003 (ip), vehicle: saline with Tween-80) was 104 % of control; the T/C (dose: 25.0 mg/kg/injection, schedule: Q01DX009 (ip), vehicle: saline with Tween-80) was 95 % of control and 100 % of control; the T/C (dose: 25.0 mg/kg/injection, schedule: Q04DX002 (ip), vehicle: saline with Tween-80) is 95 % of control and 87 % of control; the T/C (dose: 25.0 mg/kg/injection, schedule: Q04DX003 (ip), vehicle: saline with Tween-80) is 98 % of control; the T/C (dose: 50.0 mg/kg/injection, schedule: Q01DX001 (ip), vehicle: saline with Tween-80) is 107 % of control; the T/C under setting [3] was 99 % of control and 104 % of control. Further, the T/C was 103 % of control and 90 % of control (dose: 50.0 mg/kg/injection, schedule: Q04DX002 (ip), vehicle: saline with Tween-80); 93 % of control and 106 % of control (dose: 50.0 mg/kg/injection, schedule: Q04DX003 (ip), vehicle: saline with Tween-80); 107 % of control (dose: 100.0 mg/kg/injection, schedule: Q01DX001 (ip), vehicle: saline with Tween-80); 94 % of control and 96 % of control and 108 % of control (dose: 100.0 mg/kg/injection, schedule: Q04DX002 (ip), vehicle: saline with Tween-80); 94 % of control (dose: 200.0 mg/kg/injection, schedule: Q01DX001 (ip), vehicle: saline with Tween-80).
Take `CC(=O)Nn1cnc2c(SCc3ccccc3)ncnc21`: the T/C runs as follows: (dose: 100.0 mg/kg/injection, schedule: Q01DX001 (ip), vehicle: other) 96 % of control; (dose: 177.0 mg/kg/injection, schedule: Q01DX001 (ip), vehicle: other) 105 % of control; (dose: 200.0 mg/kg/injection, schedule: Q01DX001 (ip), vehicle: other) 100 % of control; (dose: 266.0 mg/kg/injection, schedule: Q01DX001 (ip), vehicle: other) 115 % of control.
Take `O=C1c2cc([N+](=O)[O-])ccc2-c2cc(Br)c(N=C(NO)C(F)(F)F)cc21`: the T/C (dose: 100.0 mg/kg/injection, schedule: Q01DX001 (ip), vehicle: carboxymethylcellulose (CMC)) was 103 % of control; the T/C (dose: 200.0 mg/kg/injection, schedule: Q01DX001 (ip), vehicle: carboxymethylcellulose (CMC)) is 98 % of control; the T/C (dose: 400.0 mg/kg/injection, schedule: Q01DX001 (ip), vehicle: carboxymethylcellulose (CMC)) was 95 % of control.
Take `O=S1(=O)CCCCc2c1ccc1ccccc21`: the T/C under setting [4] was 101 % of control, the T/C under setting [5] is 90 % of control and the T/C under setting [6] was 106 % of control.
As to `CNC(=S)N/N=C(\C=N\NC(=S)NC)c1ccc(OC)cc1`, the T/C (dose: 100.0 mg/kg/injection, schedule: Q04DX002 (ip), vehicle: Klucel (hydroxypropylcellulose) (HPC)) is 101 % of control; the T/C (dose: 200.0 mg/kg/injection, schedule: Q04DX002 (ip), vehicle: Klucel (hydroxypropylcellulose) (HPC)) was 101 % of control; the T/C (dose: 400.0 mg/kg/injection, schedule: Q04DX002 (ip), vehicle: Klucel (hydroxypropylcellulose) (HPC)) is 105 % of control.
On to `COC(=O)C(NC(C)=O)C(C)C` (configuration not stated), for which the T/C is 97 % of control (dose: 6.25 mg/kg/injection, schedule: Q03HX024 (ip), vehicle: saline); 96 % of control (dose: 12.5 mg/kg/injection, schedule: Q03HX024 (ip), vehicle: saline); 100 % of control (dose: 25.0 mg/kg/injection, schedule: Q01DX001 (ip), vehicle: saline); 89 % of control (dose: 25.0 mg/kg/injection, schedule: Q03HX024 (ip), vehicle: saline); 96 % of control (dose: 50.0 mg/kg/injection, schedule: Q01DX001 (ip), vehicle: saline); 89 % of control (dose: 50.0 mg/kg/injection, schedule: Q03HX024 (ip), vehicle: saline). Besides, the T/C is 101 % of control under setting [4]; 105 % of control (dose: 100.0 mg/kg/injection, schedule: Q03HX024 (ip), vehicle: saline); 99 % of control under setting [5]; 106 % of control under setting [6].
